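Five compound concentrations were applied to cells in 96-well plates for 48 hours; endpoints were derived by simple linear interpolation of the resulting dose-response curve. Here, GI50 denotes the concentration required for 50% inhibition of growth. TGI marks complete inhibition of growth.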
Legend:
Assay in all cases: inhibition of tumour cell growth, NCI panel, 48 h
UO-31 renal = system: UO-31 renal
SN12C renal = system: SN12C renal
SK-MEL-2 melanoma = system: SK-MEL-2 melanoma
A498 renal = system: A498 renal
UACC-257 melanoma = system: UACC-257 melanoma
HS 578T breast = system: HS 578T breast
SW-620 colon = system: SW-620 colon
HCT-15 colon = system: HCT-15 colon
OVCAR-4 ovarian = system: OVCAR-4 ovarian
NCI-H460 lung = system: NCI-H460 lung
SF-295 CNS = system: SF-295 CNS
HOP-92 NSCLC = system: HOP-92 NSCLC
OVCAR-8 ovarian = system: OVCAR-8 ovarian
NCI-H522 lung = system: NCI-H522 lung
PC-3 prostate = system: PC-3 prostate
OVCAR-5 ovarian = system: OVCAR-5 ovarian
SK-MEL-28 melanoma = system: SK-MEL-28 melanoma
LOX IMVI melanoma = system: LOX IMVI melanoma
K-562 leukemia = system: K-562 leukemia
TK-10 renal = system: TK-10 renal
SNB-75 CNS = system: SNB-75 CNS
MDA-MB-231 breast = system: MDA-MB-231 breast
HT29 colon = system: HT29 colon
SF-268 CNS = system: SF-268 CNS
MALME-3M melanoma = system: MALME-3M melanoma
786-0 renal = system: 786-0 renal
NCI-H23 lung = system: NCI-H23 lung
U251 CNS = system: U251 CNS
SNB-19 CNS = system: SNB-19 CNS
RPMI-8226 leukemia = system: RPMI-8226 leukemia
A549 NSCLC = system: A549 NSCLC
HCT-116 colon = system: HCT-116 colon
DU-145 prostate = system: DU-145 prostate
MCF7 breast = system: MCF7 breast
SK-MEL-5 melanoma = system: SK-MEL-5 melanoma
EKVX NSCLC = system: EKVX NSCLC
KM12 colon = system: KM12 colon
HCC-2998 colon = system: HCC-2998 colon
IGROV1 ovarian = system: IGROV1 ovarian
RXF 393 renal = system: RXF 393 renal
MDA-MB-435 = system: MDA-MB-435
COLO 205 colon = system: COLO 205 colon
M14 melanoma = system: M14 melanoma
SR leukemia = system: SR leukemia
HL-60(TB) leukemia = system: HL-60(TB) leukemia
CAKI-1 renal = system: CAKI-1 renal
HOP-62 NSCLC = system: HOP-62 NSCLC
UACC-62 melanoma = system: UACC-62 melanoma
MOLT-4 leukemia = system: MOLT-4 leukemia
BT-549 breast = system: BT-549 breast
ACHN renal = system: ACHN renal
SK-OV-3 ovarian = system: SK-OV-3 ovarian
SF-539 CNS = system: SF-539 CNS
CCRF-CEM leukemia = system: CCRF-CEM leukemia

SMILES: COc1cc2c(cc1OC)C(Sc1ccc(F)cc1)c1c(nc(N)c(C#N)c1N)O2 (configuration not stated)
- GI50 (UO-31 renal): 0.511 µM
- TGI (UO-31 renal): 1.93 µM
- GI50 (SN12C renal): 1.13 µM
- TGI (SN12C renal): 2.36 µM
- GI50 (SK-MEL-2 melanoma): 0.859 µM
- TGI (SK-MEL-2 melanoma): 2.14 µM
- GI50 (A498 renal): 1.29 µM
- TGI (A498 renal): 2.57 µM
- GI50 (UACC-257 melanoma): 1.34 µM
- TGI (UACC-257 melanoma): 2.67 µM
- GI50 (HS 578T breast): 1.68 µM
- TGI (HS 578T breast): 4.92 µM
- GI50 (SW-620 colon): 0.709 µM
- TGI (SW-620 colon): 2.04 µM
- GI50 (HCT-15 colon): 0.399 µM
- TGI (HCT-15 colon): 1.66 µM
- GI50 (OVCAR-4 ovarian): 1.54 µM
- TGI (OVCAR-4 ovarian): 2.93 µM
- GI50 (NCI-H460 lung): 1.27 µM
- TGI (NCI-H460 lung): 2.96 µM
- GI50 (SF-295 CNS): 1.62 µM
- TGI (SF-295 CNS): 3 µM
- GI50 (HOP-92 NSCLC): 1.19 µM
- TGI (HOP-92 NSCLC): 2.64 µM
- GI50 (OVCAR-8 ovarian): 1.26 µM
- TGI (OVCAR-8 ovarian): 2.54 µM
- GI50 (NCI-H522 lung): 1.25 µM
- TGI (NCI-H522 lung): 2.53 µM
- GI50 (PC-3 prostate): 1.05 µM
- TGI (PC-3 prostate): 2.47 µM
- GI50 (OVCAR-5 ovarian): 1.65 µM
- TGI (OVCAR-5 ovarian): 3.11 µM
- GI50 (SK-MEL-28 melanoma): 0.982 µM
- TGI (SK-MEL-28 melanoma): 2.34 µM
- GI50 (LOX IMVI melanoma): 0.325 µM
- TGI (LOX IMVI melanoma): 1.09 µM
- GI50 (K-562 leukemia): 0.426 µM
- TGI (K-562 leukemia): > 100 µM
- GI50 (TK-10 renal): 1.47 µM
- TGI (TK-10 renal): 2.8 µM
- GI50 (SNB-75 CNS): 1.33 µM
- TGI (SNB-75 CNS): 2.7 µM
- GI50 (MDA-MB-231 breast): 1.36 µM
- TGI (MDA-MB-231 breast): 2.7 µM
- GI50 (HT29 colon): 1.6 µM
- TGI (HT29 colon): 3.21 µM
- GI50 (SF-268 CNS): 1.39 µM
- TGI (SF-268 CNS): 2.9 µM
- GI50 (MALME-3M melanoma): 1.2 µM
- TGI (MALME-3M melanoma): 2.54 µM
- GI50 (786-0 renal): 1.09 µM
- TGI (786-0 renal): 2.32 µM
- GI50 (NCI-H23 lung): 1.27 µM
- TGI (NCI-H23 lung): 2.85 µM
- GI50 (U251 CNS): 0.738 µM
- TGI (U251 CNS): 2.08 µM
- GI50 (SNB-19 CNS): 1.25 µM
- TGI (SNB-19 CNS): 2.54 µM
- GI50 (RPMI-8226 leukemia): 0.754 µM
- GI50 (A549 NSCLC): 1.53 µM
- TGI (A549 NSCLC): 3 µM
- GI50 (HCT-116 colon): 0.78 µM
- TGI (HCT-116 colon): 2.14 µM
- GI50 (DU-145 prostate): 1.58 µM
- TGI (DU-145 prostate): 2.92 µM
- GI50 (MCF7 breast): 0.477 µM
- TGI (MCF7 breast): 2.04 µM
- GI50 (SK-MEL-5 melanoma): 1.57 µM
- TGI (SK-MEL-5 melanoma): 2.95 µM
- GI50 (EKVX NSCLC): 1.46 µM
- TGI (EKVX NSCLC): 2.84 µM
- GI50 (KM12 colon): 1.48 µM
- TGI (KM12 colon): 2.9 µM
- GI50 (HCC-2998 colon): 1.51 µM
- TGI (HCC-2998 colon): 2.97 µM
- GI50 (IGROV1 ovarian): 0.534 µM
- TGI (IGROV1 ovarian): 1.95 µM
- GI50 (RXF 393 renal): 0.751 µM
- TGI (RXF 393 renal): 2.03 µM
- GI50 (MDA-MB-435): 1.22 µM
- TGI (MDA-MB-435): 2.54 µM
- GI50 (COLO 205 colon): 1.1 µM
- TGI (COLO 205 colon): 2.47 µM
- GI50 (M14 melanoma): 1.16 µM
- TGI (M14 melanoma): 2.49 µM
- GI50 (SR leukemia): 0.281 µM
- TGI (SR leukemia): > 100 µM
- GI50 (HL-60(TB) leukemia): 0.319 µM
- TGI (HL-60(TB) leukemia): 1.28 µM
- GI50 (CAKI-1 renal): 1.04 µM
- TGI (CAKI-1 renal): 2.22 µM
- GI50 (HOP-62 NSCLC): 1.71 µM
- TGI (HOP-62 NSCLC): 3.19 µM
- GI50 (UACC-62 melanoma): 1.2 µM
- TGI (UACC-62 melanoma): 2.5 µM
- GI50 (MOLT-4 leukemia): 0.382 µM
- TGI (MOLT-4 leukemia): > 100 µM
- GI50 (BT-549 breast): 0.76 µM
- TGI (BT-549 breast): 2.17 µM
- GI50 (ACHN renal): 1.61 µM
- TGI (ACHN renal): 2.98 µM
- GI50 (SK-OV-3 ovarian): 1.74 µM
- TGI (SK-OV-3 ovarian): 3.17 µM
- GI50 (SF-539 CNS): 1.19 µM
- TGI (SF-539 CNS): 2.49 µM
- GI50 (CCRF-CEM leukemia): 0.164 µM
- TGI (CCRF-CEM leukemia): > 100 µM

— PubChem BioAssay (NCI)
